Test results taken from patent US20230123334A1, “AMINO LIPID COMPOUND, PREPARATION METHOD THEREFOR, AND APPLICATION THEREOF” (SHENZHEN SHENXIN BIOTECHNOLOGY CO., LTD., priority 2020, published 2023).

system: HEK293 cells; experiment: Preliminary screening as DNA vectors, GFP transfection of HEK293 cells; type: cell-based; details: amino lipid/DOPE liposome with 75 ng plasmid DNA (psin-EGFP-IRES-Puro); number of GFP-expressing cells divided by total nuclei (Hoechst)
Method in brief: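 Lipid + DOPE liposomes (NaOAc, pH 5.6) complexed w/ 75 ng psin-EGFP-IRES-Puro, 30 min RT; added to 3-5×10^4 HEK293/well, 37° C. Hoechst 0.2 μg/mL at 20-24 h, imaged after further 20-24 h. Efficiency = GFP+ cells / total nuclei.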

SMILES	Absolute DNA transfection efficiency in HEK293 cells [%]
CCCCCCCCCCSc1nc(NCCCCCC)nc(NCCCN2CCN(C)CC2)n1 [S10N6 D9]	5.5
CCCCCCCCCCCNc1nc(NCCCN2CCOCC2)nc(SCCCCCC)n1 [S6N11 D8]	1.5
CCCCCCCCCCCCCCCCSc1nc(NCCCN(C)C)nc(SCCCCCC)n1 [S6S16 D6]	0.4
CCCCCCCCCCCCSc1nc(NCCN2CCOCC2)nc(SCCCCCC)n1 [S6S12 D2]	5.0
CCCCCCCSc1nc(NCCN(CC)CC)nc(SCCCCCCC)n1 [S7S7 D7]	9.3
CCCCCCCCCCCCCCCCCCSc1nc(NCCCCCCCCC)nc(NCCN(C)C)n1 [S18N9 D1]	5.3
CCCCCCCCCCCCCCSc1nc(NCCCCCCCCCCC)nc(NCCCN2CCOCC2)n1 [S14N11 D8]	2.2
CCCCCCCCCCCCNc1nc(NCCN(C)C)nc(SCCCCCCC)n1 [S7N12 D1]	18.2
CCCCCCCCCCCCSc1nc(NCCN(CC)CC)nc(SCCCCCC)n1 [S6S12 D7]	6.6
CCCCCCCCCCCCCNc1nc(NCCN2CCCC2)nc(SCCCCCCCC)n1 [S8N13 D3]	30.5
CCCCCCCNc1nc(NCCN2CCOCC2)nc(SCCCCCCC)n1 [S7N7 D2]	2.5
CCCCCCCCCCCCCCCCCCSc1nc(NCCCCCCCCCCCCCCCC)nc(NCCN2CCCCC2)n1 [S18N16 D4]	0.1
CCCCCCCCCCCCSc1nc(NCCCCCCCCCCC)nc(NCCN2CCOCC2)n1 [S12N11 D2]	0.3
CCCCCCCCCCCSc1nc(NCCN(C)C)nc(SCCCCCC)n1 [S6S11 D1]	6.0
CCCCCCCCCCCCSc1nc(NCCN2CCCC2)nc(SCCCCCC)n1 [S6S12 D3]	4.3
CCCCCCCCCCCCSc1nc(NCCCCCC)nc(NCCCN2CCN(C)CC2)n1 [S12N6 D9]	0.3
CCCCCCCCCCCCCCCCCCSc1nc(NCCCCCCCCCCCCCCC)nc(NCCCN2CCOCC2)n1 [S18N15 D8]	0.0
CCCCCCCCCCCCCCSc1nc(NCCCCCCCCCCCC)nc(NCCCN2CCN(C)CC2)n1 [S14N12 D9]	4.1
CCCCCCCCCCCCSc1nc(NCCCCCCC)nc(NCCN(C)C)n1 [S12N7 D1]	6.9
CCCCCCCSc1nc(NCC2CCN(C)CC2)nc(SCCCCCCC)n1 [S7S7 D10]	5.5
CCCCCCCCCCCCSc1nc(NCCCCCCC)nc(NCCN2CCOCC2)n1 [S12N7 D2]	0.1
CCCCCCCCCCCCCCCCSc1nc(NCCN(CC)CC)nc(SCCCCCCC)n1 [S7S16 D7]	3.5
CCCCCCCCCCCCN(CCCCCCCCCCCC)c1nc(NCCN2CCCCC2)nc(SCCCCCCC)n1 [S7^2N12 D4]	0.0
CCCCCCCCCCCCNc1nc(NCCN2CCCCC2)nc(SCCCCCCCCCCC)n1 [S11N12 D4]	3.4
CCCCCCCCCCCSc1nc(NCCCN2CCOCC2)nc(SCCCCCCC)n1 [S7S11 D8]	11.1
CCCCCCCCCCCCCCSc1nc(NCCN2CCOCC2)nc(SCCCCCCC)n1 [S7S14 D2]	15.9
CCCCCCCCCNc1nc(NCC2CCN(C)CC2)nc(SCCCCCC)n1 [S6N9 D10]	4.3

SMILES	Absolute DNA transfection efficiency in HEK293 cells [%]
CCCCCCCCCCCCCCCCCCNc1nc(NCCN2CCCC2)nc(SCCCCCCCCCCCCCCCCCC)n1 [S18N18 D3]	0.0
CCCCCCCCNc1nc(NCC2CCN(C)CC2)nc(SCCCCCC)n1 [S6N8 D10]	0.4
CCCCCCCCCCCCN(CCCCCCCCCCCC)c1nc(NCCCN2CCN(C)CC2)nc(SCCCCCC)n1 [S6^2N12 D9]	0.4
CCCCCCCCCCCCCCCSc1nc(NCCCCCCCCCCCC)nc(NCCCN2CCN(C)CC2)n1 [S15N12 D9]	3.3
CCCCCCCCCCCCCCCSc1nc(NCCCCCCCCCCCC)nc(NCCN(C)C)n1 [S15N12 D1]	4.9
CCCCCCCCCCCNc1nc(NCCCN2CCOCC2)nc(SCCCCCCC)n1 [S7N11 D8]	13.9
CCCCCCCCCCCCCCSc1nc(NCCCCCCCCC)nc(NCCN2CCCC2)n1 [S14N9 D3]	30.7
CCCCCCCCCCCCCCCCCCSc1nc(NCCCCCCCCCCCCC)nc(NCCCN2CCOCC2)n1 [S18N13 D8]	0.0
CCCCCCCCCCCCCCCCCCNc1nc(NCCCN(C)C)nc(SCCCCCCCCCC)n1 [S10N18 D6]	7.8
CCCCCCCCCCSc1nc(NCCCCCCCC)nc(NCCCN(C)C)n1 [S10N8 D6]	10.7
CCCCCCCCCSc1nc(NCCCCCC)nc(NCC2CCN(C)CC2)n1 [S9N6 D10]	9.7
CCCCCCCCCCCCCCCCNc1nc(NCCN2CCOCC2)nc(SCCCCCCCC)n1 [S8N16 D2]	2.9
CCCCCCCCCCCSc1nc(NCCCN2CCN(C)CC2)nc(SCCCCCC)n1 [S6S11 D9]	16.8
CCCCCCCCCCCCCNc1nc(NCCN2CCOCC2)nc(SCCCCCCCCCC)n1 [S10N13 D2]	4.2
CCCCCCCCCCCCSc1nc(NCCCN(C)C)nc(SCCCCCCCC)n1 [S8S12 D6]	12.6
CCCCCCCCCCCCCNc1nc(NCCCN2CCN(C)CC2)nc(SCCCCCCCCCCCC)n1 [S12N13 D9]	2.1
CCCCCCCCCCSc1nc(NCCCCCCCC)nc(NCCN2CCOCC2)n1 [S10N8 D2]	3.7
CCCCCCCCCCCCCCCCSc1nc(NCCCCCC)nc(NCCCN2CCOCC2)n1 [S16N6 D8]	11.6
CCCCCCCCCCCCCCCCCCSc1nc(NCCCCCCCCCCCCCCC)nc(NCCN(CC)CC)n1 [S18N15 D7]	0.1
CCCCCCCCCCCCCCCSc1nc(NCCCCCCCCC)nc(NCC2CCN(C)CC2)n1 [S15N9 D10]	35.1
CCCCCCCCCCCCCCCCCCNc1nc(NCCCN2CCOCC2)nc(SCCCCCCCC)n1 [S8N18 D8]	5.1
CCCCCCCCCCCCCNc1nc(NCCCN2CCOCC2)nc(SCCCCCCCC)n1 [S8N13 D8]	13.3
CCCCCCCCCSc1nc(NCCN(C)C)nc(SCCCCCCCC)n1 [S8S9 D1]	15.6
CCCCCCCCCCCCSc1nc(NCCN2CCOCC2)nc(SCCCCCCCC)n1 [S8S12 D2]	16.1
CCCCCCCSc1nc(NCCN2CCN(C)CC2)nc(SCCCCCCC)n1 [S7S7 D5]	4.8
CCCCCCCCCCCCCCSc1nc(NCCCCCCCCCCCCC)nc(NCCCN2CCN(C)CC2)n1 [S14N13 D9]	1.4
CCCCCCCCSc1nc(NCCCN2CCN(C)CC2)nc(SCCCCCCC)n1 [S7S8 D9]	10.2
